From patent publication US12162848B2, “Inhibitors of protein tyrosine phosphatase, compositions, and methods of use” (BRISTOL-MYERS SQUIBB COMPANY, priority 2022, dated 2024)

Columns and labels:
[1] = tested on: phosphorylated STAT1 protein levels in B16-F10 cells; assay: Phospho-STAT1 (Tyr701) HTRF assay in IFN-gamma treated B16-F10 cells; type: cell-based; settings: mouse IFN-gamma 100 ng/mL, 1 hour, read-out: pSTAT1 HTRF B16 EC50
Summary of the method: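 Mouse B16-F10 cells, 10,000/well, pretreated 1 h with compound (0.15% DMSO), then stimulated with mouse IFN-gamma at 100 ng/mL final for 1 h at 37 C. Phospho-STAT1 (Tyr701) measured by HTRF.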

[2] = tested on: B16-F10 cells; assay: Cell proliferation assay (CellTiter-Glo) in IFN-gamma treated B16-F10 cells; type: cell-based; settings: 120 h, mouse IFN-gamma 10 ng/mL, read-out: PTPN2 Prolif 5d B16F10 EC50
Protocol: B16-F10 cells (ATCC, Manassas, VA, #CRL-6475) were cultured in DMEM growth medium (ThermoFisher Scientific, Waltham, MA, #11995-040) supplemented with 10% heat inactivated FBS (ThermoFisher Scientific, #16140-071) and 1% pen/strep (ThermoFisher Scientific, #15140-122). The cells were seeded into two white opaque 384-well tissue culture treated microplates (PerkinElmer, Waltham, MA, #6007688) at a density of 100 cells/well in 20 uL total volume and incubated overnight at 37 C and 5% CO2. 30 nL of compounds dissolved in DMSO were then transferred from a source plate into target wells with the Echo650 acoustic liquid handler (Beckman Coulter, Indianapolis, IN). Negative control wells received 30 nL of DMSO only (0.15% final concentration). Plates were returned to the incubator for 1 hour and then cells treated with either 5 uL of growth medium or 5 uL of growth medium containing 50 ng/mL of recombinant mouse IFN-gamma protein (R&D Systems, Minneapolis, MN, #485-MI/CF, 10 ng/mL final concentration) using the Assist automated pipetting platform (INTEGRA Biosciences, Hudson, NH). Plates were incubated at 37 C for 4 days and cell proliferation assayed with the CellTiter-Glo reagent (Promega, Madison, WI, #G7573, 25 uL per well). […] Off-target compound mediated cytotoxicity was identified by checking for growth inhibition in the absence of IFNg.

[3] = molecular target: T1, PTPN2 enzyme (Homo sapiens, UniProt P17706); assay: PhosphoSens PTPN2 biochemical assay; settings: substrate AQT0264 20 μM, room temperature; read-out: PTPN2 BCHEM IC50
T1 sequence (P17706 1-415): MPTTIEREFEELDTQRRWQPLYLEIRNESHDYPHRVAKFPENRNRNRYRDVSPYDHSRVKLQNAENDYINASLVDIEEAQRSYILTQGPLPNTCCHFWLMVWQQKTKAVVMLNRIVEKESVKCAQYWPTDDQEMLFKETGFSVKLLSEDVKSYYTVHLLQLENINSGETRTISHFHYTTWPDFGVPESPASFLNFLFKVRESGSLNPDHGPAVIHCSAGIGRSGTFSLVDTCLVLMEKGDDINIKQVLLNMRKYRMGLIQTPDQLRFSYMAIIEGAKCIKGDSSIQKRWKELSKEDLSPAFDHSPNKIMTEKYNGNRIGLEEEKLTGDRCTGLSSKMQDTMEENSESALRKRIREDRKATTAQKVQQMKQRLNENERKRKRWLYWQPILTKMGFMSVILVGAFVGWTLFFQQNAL
Summary of the method: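 PhosphoSens fluorescence format with 20 μM final AQT0264 substrate and […] in 50 mM HEPES pH 7.5, 500 μM EGTA, […], 0.01% Brij-35, 1% glycerol, 1 mM DTT, 0.2 mg/mL BSA. Compounds in 3-fold dilution series; progress curves read (ex 360/em 480 nm) every 71 s for 1 h at room temperature.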

Row | SMILES | EC50 [1] | EC50 [2] | IC50 [3]
1 | O=C1CN(c2c(O)cc(-c3ccncc3)cc2F)S(=O)(=O)N1 [EXAMPLE 9, 5-(2-fluoro-6-hydroxy-4-(pyridin-4-yl)phenyl)-1,2,5-thiadiazolidin-3-one 1,1-dioxide] | ≥ 15 µM | ≥ 15 µM | 0.322 µM
2 | O=C1CN(c2c(O)cc(-c3ccc(-c4ccccc4)nc3)cc2F)S(=O)(=O)N1 [EXAMPLE 30, 5-[2-fluoro-6-hydroxy-4-(6-phenyl-3-pyridyl)phenyl]-1,1-dioxo-1,2,5-thiadiazolidin-3-one] | ≥ 15 µM | ≥ 15 µM | 0.148 µM
3 | O=C1CN(c2c(O)cc(-c3ccccn3)cc2F)S(=O)(=O)N1 [EXAMPLE 7, 5-(2-fluoro-6-hydroxy-4-(pyridin-2-yl)phenyl)-1,2,5-thiadiazolidin-3-one 1,1-dioxide] | ≥ 15 µM | ≥ 15 µM | 0.568 µM
4 | COC1CCN(Cc2cc(O)c(N3CC(=O)NS3(=O)=O)c(F)c2)CC1 [EXAMPLE 53, 5-[2-fluoro-6-hydroxy-4-[(4-methoxy-1-piperidyl)methyl]phenyl]-1,1-dioxo-1,2,5-thiadiazolidin-3-one] | 3.2 µM | 2.98 µM | 0.102 µM
5 | O=C1CN(c2c(O)cc(CN3CCOCC3)cc2F)S(=O)(=O)N1 [EXAMPLE 41, 5-(2-fluoro-6-hydroxy-4-(morpholinomethyl)phenyl)-1,2,5-thiadiazolidin-3-one 1,1-dioxide] | 3.38 µM | 3.56 µM | 0.07 µM
6 | CC1(C)CCC[C@H](NCc2cc(O)c(N3CC(=O)NS3(=O)=O)c(F)c2)C1 [EXAMPLE 66, (S)-5-(4-(((3,3-dimethylcyclohexyl)amino)methyl)-2-fluoro-6-hydroxyphenyl)-1,2,5-thiadiazolidin-3-one 1,1-dioxide] | 0.782 µM | 0.772 µM | 0.042 µM
7 | O=C1CN(c2c(O)cc(CNC3CCCCC3)cc2F)S(=O)(=O)N1 [EXAMPLE 34, 5-[4-[(cyclohexylamino)methyl]-2-fluoro-6-hydroxy-phenyl]-1,1-dioxo-1,2,5-thiadiazolidin-3-one] | 1.74 µM | 1.72 µM | 0.09 µM
8 | O=C1CN(c2c(O)cc(CN[C@@H]3CCCNC3)cc2F)S(=O)(=O)N1 [EXAMPLE 61, (R)-5-(2-fluoro-6-hydroxy-4-((piperidin-3-ylamino)methyl)phenyl)-1,2,5-thiadiazolidin-3-one 1,1-dioxide] | 4.98 µM | 2.56 µM | 0.121 µM
9 | CN1CCN(c2ccc(-c3cc(O)c(N4CC(=O)NS4(=O)=O)c(F)c3)cn2)CC1 [EXAMPLE 27, 5-[2-fluoro-6-hydroxy-4-[6-(4-methylpiperazin-1-yl)-3-pyridyl]phenyl]-1,1-dioxo-1,2,5-thiadiazolidin-3-one] | ≥ 15 µM | ≥ 15 µM | 0.457 µM
10 | O=C1CN(c2c(O)cc(CNC3CCNCC3)cc2F)S(=O)(=O)N1 [EXAMPLE 39, 5-(2-fluoro-6-hydroxy-4-((piperidin-4-ylamino)methyl)phenyl)-1,2,5-thiadiazolidin-3-one 1,1-dioxide] | ≥ 15 µM | ≥ 15 µM | 0.086 µM
11 | CN(Cc1cc(O)c(N2CC(=O)NS2(=O)=O)c(F)c1)C1CCCCC1 [EXAMPLE 43, 5-(4-((cyclohexyl(methyl)amino)methyl)-2-fluoro-6-hydroxyphenyl)-1,2,5-thiadiazolidin-3-one 1,1-dioxide] | 4.27 µM | 4.35 µM | 0.239 µM
12 | O=C1CN(c2c(O)cc(-c3ccc(-c4ccc(F)cc4)cc3)cc2F)S(=O)(=O)N1 [EXAMPLE 12, 5-[2-fluoro-4-[4-(4-fluorophenyl)phenyl]-6-hydroxy-phenyl]-1,1-dioxo-1,2,5-thiadiazolidin-3-one] | ≥ 15 µM | ≥ 15 µM | 1.99 µM
13 | CC(C)Cc1ccc(-c2cc(O)c(N3CC(=O)NS3(=O)=O)c(F)c2)cc1 [EXAMPLE 15, 5-[2-fluoro-6-hydroxy-4-(4-isobutylphenyl)phenyl]-1,1-dioxo-1,2,5-thiadiazolidin-3-one] | ≥ 15 µM | ≥ 15 µM | 2.48 µM
14 | O=C1CN(c2c(O)cc(CNC3CCOCC3)cc2F)S(=O)(=O)N1 [EXAMPLE 35, 5-[2-fluoro-6-hydroxy-4-[(tetrahydropyran-4-ylamino)methyl]phenyl]-1,1-dioxo-1,2,5-thiadiazolidin-3-one] | ≥ 15 µM | ≥ 15 µM | 1.56 µM
15 | COCCN1CCC(Nc2cc(O)c(N3CC(=O)NS3(=O)=O)c(F)c2)CC1 [EXAMPLE 90, 5-(2-fluoro-6-hydroxy-4-((1-(2-methoxyethyl)piperidin-4-yl)amino)phenyl)-1,2,5-thiadiazolidin-3-one 1,1-dioxide] | ≥ 15 µM | ≥ 15 µM | 2.13 µM
16 | CC(C)CCN1CCN(Cc2cc(O)c(N3CC(=O)NS3(=O)=O)c(F)c2)CC1 [EXAMPLE 32, 5-(2-fluoro-6-hydroxy-4-((4-isopentylpiperazin-1-yl)methyl)phenyl)-1,2,5-thiadiazolidin-3-one 1,1-dioxide] | ≥ 15 µM | ≥ 15 µM | 0.065 µM
17 | O=C(O)CC(=O)N1CCC[C@H](NCc2cc(O)c(N3CC(=O)NS3(=O)=O)c(F)c2)C1 [EXAMPLE 76, 3-[(3S)-3-[[3-fluoro-5-hydroxy-4-(1,1,4-trioxo-1,2,5-thiadiazolidin-2-yl)phenyl]methylamino]-1-piperidyl]-3-oxo-propanoic acid] | ≥ 15 µM | ≥ 15 µM | 0.012 µM
18 | CC(C)CCN1CCN(c2cc(O)c(N3CC(=O)NS3(=O)=O)c(F)c2)CC1 [EXAMPLE 83, 5-(2-fluoro-6-hydroxy-4-(4-isopentylpiperazin-1-yl)phenyl)-1,2,5-thiadiazolidin-3-one 1,1-dioxide] | ≥ 15 µM | ≥ 15 µM | 0.896 µM
19 | CC(C)CCN1CCC(Nc2cc(O)c(N3CC(=O)NS3(=O)=O)c(F)c2)CC1 [EXAMPLE 89, 5-(2-fluoro-6-hydroxy-4-((1-isopentylpiperidin-4-yl)amino)phenyl)-1,2,5-thiadiazolidin-3-one 1,1-dioxide] | ≥ 15 µM | ≥ 15 µM | 0.757 µM
20 | CN1CCN(Cc2cc(O)c(N3CC(=O)NS3(=O)=O)c(F)c2)CC1 [EXAMPLE 31, 5-(2-fluoro-6-hydroxy-4-((4-methylpiperazin-1-yl)methyl)phenyl)-1,2,5-thiadiazolidin-3-one 1,1-dioxide] | 2.41 µM | 1.31 µM | 0.104 µM
21 | O=C1CN(c2c(O)cc(-c3cccnc3)cc2F)S(=O)(=O)N1 [EXAMPLE 8, 5-(2-fluoro-6-hydroxy-4-(pyridin-3-yl)phenyl)-1,2,5-thiadiazolidin-3-one 1,1-dioxide] | 2.43 µM | ≥ 15 µM | 0.199 µM
22 | CS(=O)(=O)N1CCC[C@@H](NCc2cc(O)c(N3CC(=O)NS3(=O)=O)c(F)c2)C1 [EXAMPLE 72, 5-[2-fluoro-6-hydroxy-4-[[[(3R)-1-methylsulfonyl-3-piperidyl]amino]methyl]phenyl]-1,1-dioxo-1,2,5-thiadiazolidin-3-one] | 3.56 µM | 4.69 µM | 0.054 µM
23 | CC1(C)CCC(NCc2cc(O)c(N3CC(=O)NS3(=O)=O)c(F)c2)CC1 [EXAMPLE 37, 5-(4-(((4,4-dimethylcyclohexyl)amino)methyl)-2-fluoro-6-hydroxyphenyl)-1,2,5-thiadiazolidin-3-one 1,1-dioxide] | 1.33 µM | 0.812 µM | 0.035 µM
24 | CN(C)C1CCN(Cc2cc(O)c(N3CC(=O)NS3(=O)=O)c(F)c2)CC1 [EXAMPLE 33, 5-(4-((4-(dimethylamino)piperidin-1-yl)methyl)-2-fluoro-6-hydroxyphenyl)-1,2,5-thiadiazolidin-3-one 1,1-dioxide] | ≥ 15 µM | ≥ 15 µM | 0.094 µM
